Publication PMC10636171 (Cell Death & Disease, 2023)

How the values were obtained:
Cyclin D1 = experiment: Western blot of Cyclin D1; format: cell-based; conditions: 5 nM and 10 nM
Description: Proteins (25–50 ug/lane) were separated on a 4–12% Bis-Tris NuPAGE gel and blotted onto a PVDF membrane (FluoroTrans; VWR). […] Horseradish peroxidase-conjugated secondary antibodies were from Cell Signaling. Proteins were visualized by enhanced chemiluminescence (Millipore) on ChemiDoc camera (Bio-Rad) and protein expression levels were quantified using the lmageJ software. Full anduncropped western blots are presented in Supplemental File.

JAK1 = biological target: T1, JAK1 (Homo sapiens, UniProt P23458); experiment: HTRF/ADP-Glo kinase selectivity panel; format: biochemical; conditions: 500 nM, read-out: 1D228(%inhibition)@500nM
T1 construct: purchased Invitrogen (c-Met, TRKA, TRKB, TRKC)
Description: (§1) The compound was serial diluted from 10 mM stock in DMSO, dilute the test compound to 0.1 mM (200 times the specified test concentration). 2 × ATP & Substrate solution and 2 × kinase & Metal solution were prepared using assay buffer; Transfer 25 nL compound to 384 assay plate by Echo 655; After centrifugation, add 2.5 μL 2 × kinase/metal ion solution 384 assay plate, and incubate at 25 °C for 10 min. 2 × XL665 & Antibody solution were prepared with detection buffer; 5 μL of Kinase Detection Reagent was added to the well, and incubated for 60 min at 25 °C; The fluorescence signals of 620 nm (Cryptate) and 665 nm (XL665) were read by microtiter plate reader; […]

TYK2 = biological target: T2, TYK2 (Homo sapiens, UniProt P29597); experiment: HTRF/ADP-Glo kinase selectivity panel; format: biochemical; conditions: 500 nM, read-out: 1D228(%inhibition)@500nM
T2 construct: purchased Invitrogen (c-Met, TRKA, TRKB, TRKC)
Description: as §1

RON = biological target: T3, RON (Homo sapiens, UniProt Q04912); experiment: HTRF/ADP-Glo kinase selectivity panel; format: biochemical; conditions: 500 nM, read-out: 1D228(%inhibition)@500nM
T3 construct: purchased Invitrogen (c-Met, TRKA, TRKB, TRKC)
Description: as §1

YES = biological target: T4, YES (Homo sapiens, UniProt P07947); experiment: HTRF/ADP-Glo kinase selectivity panel; format: biochemical; conditions: 500 nM, read-out: 1D228(%inhibition)@500nM
T4 construct: purchased Invitrogen (c-Met, TRKA, TRKB, TRKC)
T4 sequence (P07947 whole entry): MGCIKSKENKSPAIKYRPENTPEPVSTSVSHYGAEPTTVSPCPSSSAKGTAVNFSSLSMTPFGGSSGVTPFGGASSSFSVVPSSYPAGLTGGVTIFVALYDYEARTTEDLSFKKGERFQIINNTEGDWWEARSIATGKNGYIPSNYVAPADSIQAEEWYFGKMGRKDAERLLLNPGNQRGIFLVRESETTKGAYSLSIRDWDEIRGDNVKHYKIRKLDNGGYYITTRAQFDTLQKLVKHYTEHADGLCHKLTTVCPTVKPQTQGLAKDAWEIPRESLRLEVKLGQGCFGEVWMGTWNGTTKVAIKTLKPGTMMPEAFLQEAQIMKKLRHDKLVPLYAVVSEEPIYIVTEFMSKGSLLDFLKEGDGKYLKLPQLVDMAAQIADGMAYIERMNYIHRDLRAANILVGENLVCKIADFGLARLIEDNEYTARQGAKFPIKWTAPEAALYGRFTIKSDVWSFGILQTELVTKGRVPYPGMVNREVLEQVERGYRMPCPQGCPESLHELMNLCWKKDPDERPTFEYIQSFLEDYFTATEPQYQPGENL
Description: as §1

BTK = biological target: T5, BTK (Homo sapiens, UniProt Q06187); experiment: HTRF/ADP-Glo kinase selectivity panel; format: biochemical; conditions: 500 nM, read-out: 1D228(%inhibition)@500nM
T5 construct: purchased Invitrogen (c-Met, TRKA, TRKB, TRKC)
Description: as §1

EPHB1 = biological target: T6, EPHB1 (Homo sapiens, UniProt P54762); experiment: HTRF/ADP-Glo kinase selectivity panel; format: biochemical; conditions: 500 nM, read-out: 1D228(%inhibition)@500nM
T6 construct: purchased Invitrogen (c-Met, TRKA, TRKB, TRKC)
Description: as §1

FAK = biological target: T7, FAK (Homo sapiens, UniProt Q05397); experiment: HTRF/ADP-Glo kinase selectivity panel; format: biochemical; conditions: 500 nM, read-out: 1D228(%inhibition)@500nM
T7 construct: purchased Invitrogen (c-Met, TRKA, TRKB, TRKC)
Description: as §1

IRR = biological target: T8, IRR (Homo sapiens, UniProt P14616); experiment: HTRF/ADP-Glo kinase selectivity panel; format: biochemical; conditions: 500 nM, read-out: 1D228(%inhibition)@500nM
T8 construct: purchased Invitrogen (c-Met, TRKA, TRKB, TRKC)
Description: as §1

FYN [b] = biological target: T9, FYN [b] (Homo sapiens, UniProt P06241); experiment: HTRF/ADP-Glo kinase selectivity panel; format: biochemical; conditions: 500 nM, read-out: 1D228(%inhibition)@500nM
T9 construct: purchased Invitrogen (c-Met, TRKA, TRKB, TRKC)
Description: as §1

EPHA2 = biological target: T10, EPHA2 (Homo sapiens, UniProt P29317); experiment: HTRF/ADP-Glo kinase selectivity panel; format: biochemical; conditions: 500 nM, read-out: 1D228(%inhibition)@500nM
T10 construct: purchased Invitrogen (c-Met, TRKA, TRKB, TRKC)
Description: as §1

KDR = biological target: T11, KDR (Homo sapiens, UniProt P35968); experiment: HTRF/ADP-Glo kinase selectivity panel; format: biochemical; conditions: 500 nM, read-out: 1D228(%inhibition)@500nM
T11 construct: purchased Invitrogen (c-Met, TRKA, TRKB, TRKC)
Description: as §1

MER = biological target: T12, MER (Homo sapiens, UniProt Q12866); experiment: HTRF/ADP-Glo kinase selectivity panel; format: biochemical; conditions: 500 nM, read-out: 1D228(%inhibition)@500nM
T12 construct: purchased Invitrogen (c-Met, TRKA, TRKB, TRKC)
Description: as §1

EPHA1 = biological target: T13, EPHA1 (Homo sapiens, UniProt P21709); experiment: HTRF/ADP-Glo kinase selectivity panel; format: biochemical; conditions: 500 nM, read-out: 1D228(%inhibition)@500nM
T13 construct: purchased Invitrogen (c-Met, TRKA, TRKB, TRKC)
T13 sequence (P21709 26-976): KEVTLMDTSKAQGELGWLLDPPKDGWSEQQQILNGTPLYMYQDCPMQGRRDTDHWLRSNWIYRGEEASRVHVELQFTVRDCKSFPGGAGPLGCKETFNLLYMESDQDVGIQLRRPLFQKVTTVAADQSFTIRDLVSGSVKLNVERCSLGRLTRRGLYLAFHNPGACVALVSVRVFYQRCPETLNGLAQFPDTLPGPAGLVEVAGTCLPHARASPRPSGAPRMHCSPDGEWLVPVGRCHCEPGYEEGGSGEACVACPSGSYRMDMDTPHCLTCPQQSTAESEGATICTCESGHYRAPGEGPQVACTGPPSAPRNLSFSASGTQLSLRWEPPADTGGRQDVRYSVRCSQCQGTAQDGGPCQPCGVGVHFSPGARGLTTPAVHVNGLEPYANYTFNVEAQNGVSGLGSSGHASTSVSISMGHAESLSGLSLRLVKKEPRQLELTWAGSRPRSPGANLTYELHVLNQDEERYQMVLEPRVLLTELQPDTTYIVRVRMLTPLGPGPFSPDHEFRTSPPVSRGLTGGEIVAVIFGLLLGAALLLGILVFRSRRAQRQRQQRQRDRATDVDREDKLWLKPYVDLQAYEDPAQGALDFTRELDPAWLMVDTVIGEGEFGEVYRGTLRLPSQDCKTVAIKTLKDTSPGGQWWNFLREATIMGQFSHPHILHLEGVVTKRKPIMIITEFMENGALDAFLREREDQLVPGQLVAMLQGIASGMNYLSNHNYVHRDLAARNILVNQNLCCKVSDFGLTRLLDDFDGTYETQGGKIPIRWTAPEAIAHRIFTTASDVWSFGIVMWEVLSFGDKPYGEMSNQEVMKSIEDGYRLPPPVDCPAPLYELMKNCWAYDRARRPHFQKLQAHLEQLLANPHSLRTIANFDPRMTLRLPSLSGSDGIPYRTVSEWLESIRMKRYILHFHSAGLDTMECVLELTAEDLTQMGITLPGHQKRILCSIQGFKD
Description: as §1

FYN [a] = biological target: T14, FYN [a] (Homo sapiens, UniProt P06241); experiment: HTRF/ADP-Glo kinase selectivity panel; format: biochemical; conditions: 500 nM, read-out: 1D228(%inhibition)@500nM
T14 construct: purchased Invitrogen (c-Met, TRKA, TRKB, TRKC)
Description: as §1

IGF1R = biological target: T15, IGF1R (Homo sapiens, UniProt P08069); experiment: HTRF/ADP-Glo kinase selectivity panel; format: biochemical; conditions: 500 nM, read-out: 1D228(%inhibition)@500nM
T15 construct: purchased Invitrogen (c-Met, TRKA, TRKB, TRKC)
Description: as §1

FGFR2 = biological target: T16, FGFR2 (Homo sapiens, UniProt P21802); experiment: HTRF/ADP-Glo kinase selectivity panel; format: biochemical; conditions: 500 nM, read-out: 1D228(%inhibition)@500nM
T16 construct: purchased Invitrogen (c-Met, TRKA, TRKB, TRKC)
T16 sequence (P21802 22-821): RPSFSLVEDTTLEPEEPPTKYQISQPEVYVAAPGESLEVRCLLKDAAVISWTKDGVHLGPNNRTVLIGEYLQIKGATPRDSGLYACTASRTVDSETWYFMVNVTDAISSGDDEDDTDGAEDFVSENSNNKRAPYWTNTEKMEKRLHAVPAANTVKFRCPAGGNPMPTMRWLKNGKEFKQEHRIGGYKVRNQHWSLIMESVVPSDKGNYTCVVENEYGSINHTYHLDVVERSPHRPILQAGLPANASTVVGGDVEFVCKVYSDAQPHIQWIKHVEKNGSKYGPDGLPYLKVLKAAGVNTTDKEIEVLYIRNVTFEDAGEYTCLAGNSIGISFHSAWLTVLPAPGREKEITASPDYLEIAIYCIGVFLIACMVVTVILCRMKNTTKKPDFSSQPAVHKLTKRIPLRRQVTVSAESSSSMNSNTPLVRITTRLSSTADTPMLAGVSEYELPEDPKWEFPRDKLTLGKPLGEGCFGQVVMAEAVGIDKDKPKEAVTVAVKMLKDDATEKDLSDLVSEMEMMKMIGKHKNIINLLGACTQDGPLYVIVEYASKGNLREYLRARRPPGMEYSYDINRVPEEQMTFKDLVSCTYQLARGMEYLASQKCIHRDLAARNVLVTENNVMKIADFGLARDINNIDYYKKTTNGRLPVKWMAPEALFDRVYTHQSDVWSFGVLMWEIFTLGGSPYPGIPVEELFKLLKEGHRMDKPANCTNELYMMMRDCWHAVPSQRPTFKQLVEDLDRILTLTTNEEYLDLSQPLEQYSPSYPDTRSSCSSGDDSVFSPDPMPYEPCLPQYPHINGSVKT
Description: as §1

TXK = biological target: T17, TXK (Homo sapiens, UniProt P42681); experiment: HTRF/ADP-Glo kinase selectivity panel; format: biochemical; conditions: 500 nM, read-out: 1D228(%inhibition)@500nM
T17 construct: purchased Invitrogen (c-Met, TRKA, TRKB, TRKC)
T17 sequence (P42681 whole entry): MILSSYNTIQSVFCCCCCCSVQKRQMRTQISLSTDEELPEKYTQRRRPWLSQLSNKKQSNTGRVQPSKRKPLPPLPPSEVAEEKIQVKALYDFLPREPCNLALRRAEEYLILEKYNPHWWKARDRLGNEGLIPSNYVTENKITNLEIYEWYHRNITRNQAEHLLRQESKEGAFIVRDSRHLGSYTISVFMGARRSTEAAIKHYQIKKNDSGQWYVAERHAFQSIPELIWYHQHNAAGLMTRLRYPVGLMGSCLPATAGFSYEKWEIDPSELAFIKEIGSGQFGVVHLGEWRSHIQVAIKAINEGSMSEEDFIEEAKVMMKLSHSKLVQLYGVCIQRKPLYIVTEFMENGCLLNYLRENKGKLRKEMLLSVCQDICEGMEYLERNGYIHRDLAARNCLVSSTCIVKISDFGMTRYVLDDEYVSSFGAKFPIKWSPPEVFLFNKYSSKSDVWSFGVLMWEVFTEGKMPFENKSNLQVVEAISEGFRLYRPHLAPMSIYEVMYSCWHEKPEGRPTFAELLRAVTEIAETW
Description: as §1

FES = biological target: T18, FES (Homo sapiens, UniProt P07332); experiment: HTRF/ADP-Glo kinase selectivity panel; format: biochemical; conditions: 500 nM, read-out: 1D228(%inhibition)@500nM
T18 construct: purchased Invitrogen (c-Met, TRKA, TRKB, TRKC)
Description: as §1

SRC = biological target: T19, SRC (Homo sapiens, UniProt P12931); experiment: HTRF/ADP-Glo kinase selectivity panel; format: biochemical; conditions: 500 nM, read-out: 1D228(%inhibition)@500nM
T19 construct: purchased Invitrogen (c-Met, TRKA, TRKB, TRKC)
Description: as §1

ACK = biological target: T20, ACK (Homo sapiens, UniProt Q07912); experiment: HTRF/ADP-Glo kinase selectivity panel; format: biochemical; conditions: 500 nM, read-out: 1D228(%inhibition)@500nM
T20 construct: purchased Invitrogen (c-Met, TRKA, TRKB, TRKC)
T20 sequence (Q07912 whole entry): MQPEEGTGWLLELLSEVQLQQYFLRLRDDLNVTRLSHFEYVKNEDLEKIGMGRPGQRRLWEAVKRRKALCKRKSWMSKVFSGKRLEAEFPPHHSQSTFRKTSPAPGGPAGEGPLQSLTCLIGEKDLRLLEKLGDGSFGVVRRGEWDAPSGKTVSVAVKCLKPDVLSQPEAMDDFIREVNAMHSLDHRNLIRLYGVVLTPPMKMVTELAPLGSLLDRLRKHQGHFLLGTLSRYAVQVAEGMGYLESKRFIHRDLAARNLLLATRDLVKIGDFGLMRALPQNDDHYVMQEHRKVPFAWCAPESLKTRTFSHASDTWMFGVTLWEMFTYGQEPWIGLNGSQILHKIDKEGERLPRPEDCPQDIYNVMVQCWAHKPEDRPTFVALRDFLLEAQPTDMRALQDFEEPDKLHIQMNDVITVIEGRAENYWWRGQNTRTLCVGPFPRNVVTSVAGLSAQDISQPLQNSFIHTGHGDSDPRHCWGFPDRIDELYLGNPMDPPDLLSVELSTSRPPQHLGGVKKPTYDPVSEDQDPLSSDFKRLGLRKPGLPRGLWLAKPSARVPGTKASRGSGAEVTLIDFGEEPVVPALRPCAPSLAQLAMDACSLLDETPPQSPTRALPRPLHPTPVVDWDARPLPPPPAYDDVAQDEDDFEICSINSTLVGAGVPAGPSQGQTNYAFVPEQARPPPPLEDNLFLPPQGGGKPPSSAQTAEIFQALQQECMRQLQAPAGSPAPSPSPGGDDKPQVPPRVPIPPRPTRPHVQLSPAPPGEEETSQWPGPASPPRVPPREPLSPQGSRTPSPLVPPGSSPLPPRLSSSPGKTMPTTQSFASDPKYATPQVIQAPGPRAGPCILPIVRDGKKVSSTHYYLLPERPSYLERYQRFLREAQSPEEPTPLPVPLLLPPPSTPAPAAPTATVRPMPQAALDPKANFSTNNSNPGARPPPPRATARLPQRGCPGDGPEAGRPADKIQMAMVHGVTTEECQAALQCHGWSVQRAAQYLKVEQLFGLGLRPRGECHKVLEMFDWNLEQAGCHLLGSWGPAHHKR
Description: as §1

MUSK = biological target: T21, MUSK (Homo sapiens, UniProt O15146); experiment: HTRF/ADP-Glo kinase selectivity panel; format: biochemical; conditions: 500 nM, read-out: 1D228(%inhibition)@500nM
T21 construct: purchased Invitrogen (c-Met, TRKA, TRKB, TRKC)
Description: as §1

SYK = biological target: T22, SYK (Homo sapiens, UniProt P43405); experiment: HTRF/ADP-Glo kinase selectivity panel; format: biochemical; conditions: 500 nM, read-out: 1D228(%inhibition)@500nM
T22 construct: purchased Invitrogen (c-Met, TRKA, TRKB, TRKC)
Description: as §1

Her4 = biological target: T23, Her4 (Homo sapiens, UniProt Q15303); experiment: HTRF/ADP-Glo kinase selectivity panel; format: biochemical; conditions: 500 nM, read-out: 1D228(%inhibition)@500nM
T23 construct: purchased Invitrogen (c-Met, TRKA, TRKB, TRKC)
Description: as §1

TRKA = biological target: T24, TRKA (Homo sapiens, UniProt P04629); experiment: HTRF/ADP-Glo kinase selectivity panel; format: biochemical; conditions: 500 nM, read-out: 1D228(%inhibition)@500nM
T24 construct: purchased Invitrogen (c-Met, TRKA, TRKB, TRKC)
Description: as §1

BRK = biological target: T25, BRK (Homo sapiens, UniProt Q13882); experiment: HTRF/ADP-Glo kinase selectivity panel; format: biochemical; conditions: 500 nM, read-out: 1D228(%inhibition)@500nM
T25 construct: purchased Invitrogen (c-Met, TRKA, TRKB, TRKC)
Description: as §1

FGFR4 = biological target: T26, FGFR4 (Homo sapiens, UniProt P22455); experiment: HTRF/ADP-Glo kinase selectivity panel; format: biochemical; conditions: 500 nM, read-out: 1D228(%inhibition)@500nM
T26 construct: purchased Invitrogen (c-Met, TRKA, TRKB, TRKC)
Description: as §1

ALK = biological target: T27, ALK (Homo sapiens, UniProt Q9UM73); experiment: HTRF/ADP-Glo kinase selectivity panel; format: biochemical; conditions: 500 nM, read-out: 1D228(%inhibition)@500nM
T27 construct: purchased Invitrogen (c-Met, TRKA, TRKB, TRKC)
Description: as §1

EPHA4 = biological target: T28, EPHA4 (Homo sapiens, UniProt P54764); experiment: HTRF/ADP-Glo kinase selectivity panel; format: biochemical; conditions: 500 nM, read-out: 1D228(%inhibition)@500nM
T28 construct: purchased Invitrogen (c-Met, TRKA, TRKB, TRKC)
T28 sequence (P54764 20-986): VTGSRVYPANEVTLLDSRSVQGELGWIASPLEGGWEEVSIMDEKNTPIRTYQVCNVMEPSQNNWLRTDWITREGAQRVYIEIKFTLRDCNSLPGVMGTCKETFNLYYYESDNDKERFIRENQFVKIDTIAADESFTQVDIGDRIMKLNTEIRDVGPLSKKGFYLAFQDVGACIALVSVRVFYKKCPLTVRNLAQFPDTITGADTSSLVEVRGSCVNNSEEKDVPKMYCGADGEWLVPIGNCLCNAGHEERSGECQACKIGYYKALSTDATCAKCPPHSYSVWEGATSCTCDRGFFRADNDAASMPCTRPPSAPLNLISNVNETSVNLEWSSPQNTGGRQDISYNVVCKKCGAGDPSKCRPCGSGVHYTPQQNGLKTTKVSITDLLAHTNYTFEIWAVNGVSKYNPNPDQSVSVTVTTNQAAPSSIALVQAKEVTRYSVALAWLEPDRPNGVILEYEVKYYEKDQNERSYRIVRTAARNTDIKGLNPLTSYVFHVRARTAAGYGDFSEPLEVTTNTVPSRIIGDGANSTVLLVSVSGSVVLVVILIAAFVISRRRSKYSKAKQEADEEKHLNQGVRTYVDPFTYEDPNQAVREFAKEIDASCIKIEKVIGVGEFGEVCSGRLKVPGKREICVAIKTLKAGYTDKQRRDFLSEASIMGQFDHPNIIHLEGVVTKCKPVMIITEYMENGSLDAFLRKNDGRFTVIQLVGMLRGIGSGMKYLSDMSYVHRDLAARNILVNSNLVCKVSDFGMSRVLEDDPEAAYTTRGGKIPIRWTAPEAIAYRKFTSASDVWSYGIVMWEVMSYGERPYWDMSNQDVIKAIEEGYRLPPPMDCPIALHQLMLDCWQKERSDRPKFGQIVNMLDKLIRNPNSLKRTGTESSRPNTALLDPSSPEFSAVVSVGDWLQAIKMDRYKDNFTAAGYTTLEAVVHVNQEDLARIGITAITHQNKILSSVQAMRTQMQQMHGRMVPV
Description: as §1

PDGFRβ = biological target: T29, PDGFRβ (Homo sapiens, UniProt P09619); experiment: HTRF/ADP-Glo kinase selectivity panel; format: biochemical; conditions: 500 nM, read-out: 1D228(%inhibition)@500nM
T29 construct: purchased Invitrogen (c-Met, TRKA, TRKB, TRKC)
Description: as §1

EPHA8 = biological target: T30, EPHA8 (Homo sapiens, UniProt P29322); experiment: HTRF/ADP-Glo kinase selectivity panel; format: biochemical; conditions: 500 nM, read-out: 1D228(%inhibition)@500nM
T30 construct: purchased Invitrogen (c-Met, TRKA, TRKB, TRKC)
Description: as §1

EPHB3 = biological target: T31, EPHB3 (Homo sapiens, UniProt P54753); experiment: HTRF/ADP-Glo kinase selectivity panel; format: biochemical; conditions: 500 nM, read-out: 1D228(%inhibition)@500nM
T31 construct: purchased Invitrogen (c-Met, TRKA, TRKB, TRKC)
Description: as §1

[1] = Liver microsomal stability assay; format: in vitro ADME; conditions: liver microsomes, pH 7.4
Description: The incubation system (including 0.1 M PH 7.4 phosphate buffer, NADPH generation system, UGT incubation system, 0.5 mg/mL liver microsomal protein and appropriate concentration of drug to be tested) was incubated in a water bath at 37 °C for […]. Each sample was incubated three times in parallel, and an equal volume of pre-chilled acetonitrile was added at preset reaction time points, such as 0, 5, 10, 15, 30 and 60 min. The reaction was terminated by the addition of acetonitrile. The remaining content of the prototype drug in the warm incubation solution was determined by HPLC, HPLC-MC and HPLC-MC/MC.

## [2H][C@@](C)(c1cccc(-c2ncc(OCC3CCN(C)CC3)cn2)c1)n1nc(-c2cccc(C#N)c2)ccc1=O [1D228]
Cyclin D1
  Cyclin D1 expression: substantially inhibited
JAK1
  inhibition at 0.5 µM: 7.19%
TYK2
  inhibition at 0.5 µM: 4.51%
RON
  inhibition at 0.5 µM: 1.38%
YES
  inhibition at 0.5 µM: 11.3%
BTK
  inhibition at 0.5 µM: -3.81%
EPHB1
  inhibition at 0.5 µM: -6.48%
FAK
  inhibition at 0.5 µM: -9.58%
IRR
  inhibition at 0.5 µM: 3.88%
FYN [b]
  inhibition at 0.5 µM: 10.9%
EPHA2
  inhibition at 0.5 µM: -0.798%
KDR
  inhibition at 0.5 µM: 5.62%
MER
  inhibition at 0.5 µM: 84.1%
EPHA1
  inhibition at 0.5 µM: -1.53%
FYN [a]
  inhibition at 0.5 µM: -7.78%
IGF1R
  inhibition at 0.5 µM: 5.26%
FGFR2
  inhibition at 0.5 µM: 1.04%
TXK
  inhibition at 0.5 µM: 1.29%
FES
  inhibition at 0.5 µM: 1.05%
SRC
  inhibition at 0.5 µM: 2.91%
ACK
  inhibition at 0.5 µM: 1.96%
MUSK
  inhibition at 0.5 µM: 9.13%
SYK
  inhibition at 0.5 µM: 2.47%
Her4
  inhibition at 0.5 µM: 2.21%
TRKA
  inhibition at 0.5 µM: 93.6%
BRK
  inhibition at 0.5 µM: 3.19%
FGFR4
  inhibition at 0.5 µM: -0.37%
ALK
  inhibition at 0.5 µM: 89.5%
EPHA4
  inhibition at 0.5 µM: -14.7%
PDGFRβ
  inhibition at 0.5 µM: -3.95%
EPHA8
  inhibition at 0.5 µM: 8.52%
EPHB3
  inhibition at 0.5 µM: 5.68%
[1]; cynomolgus monkey, Macaca fascicularis liver microsome
  half-life: 27.6 h
[1]; mouse, CD - 1 mice liver microsome
  half-life: 1.7 h
